Assay results: PMC10877568 (ACS Chemical Biology, 2024)

Key:
Type in all cases: binding
[1] = target: T1, Siglec-9 V-set domain (Siglec-9d1) (Homo sapiens, UniProt Q9Y336, C36S); assay: Isothermal titration calorimetry
[2] = target: T1, Siglec-9 V-set domain (Siglec-9d1); assay: 1H-15N HSQC NMR titration
[3] = tested on: mVENUS; assay: STD-NMR control experiment with mVENUS

T1 sequence (Q9Y336 18-144 C36S): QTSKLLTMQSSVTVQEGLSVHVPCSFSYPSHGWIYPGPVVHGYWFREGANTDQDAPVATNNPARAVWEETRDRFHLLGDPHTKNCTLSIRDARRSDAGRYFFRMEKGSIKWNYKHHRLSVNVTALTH

Row | Compound | ΔH ([1]; ITC, Siglec-9d1) | fold higher affinity for Siglec-9 than the glycan with unsubstituted Neu5Ac ([1]; comparison with the unsubstituted glycan) | fold higher affinity toward Siglec-9 than BTCNeu5Ac ([1]; from ITC KD values) | Kd [2] | STD NMR signals on binding to mVENUS [3]
1 | 9N-[5-(2-methylthiazol-4-yl)thiophene sulfonamide]-Neu5Acα(2–6)Galβ(1–4)GlcNAc [^MTTSNeu5Ac] | -10.2 kcal/mol | > 20 fold | approximately 2 fold | – | –
2 | CC(=O)N[C@H]1[C@H]([C@H](O)[C@H](O)CO)O[C@@](O[C@H]2[C@@H](O)[C@@H](CO)O[C@@H](O[C@@H]([C@H](O[C@@H]3O[C@@H](C)[C@@H](O)[C@@H](O)[C@@H]3O)[C@H](C=O)NC(C)=O)[C@H](O)CO)[C@@H]2O)(C(=O)O)C[C@@H]1O [sLeX, Neu5Ac(α2-3)Gal(β1-4)[Fuc(1-3)]GlcNAc] | – | – | – | 499 ± 74 µM | did not produce any STD NMR signals
